# Experimental data taken from patent publication US20230114865A1, “PHENYL PYRROLE AMINOGUANIDINE SALTS AND FORMULATIONS” (SYNACT PHARMA APS, priority 2021, published 2023).
# Like-named read-outs stand apart in the source and are kept apart here. Marks after values point to notes of the source that are not given here.
# Legend:
# [1] = Solubility of additional AP1189 salts, HCl/KCl buffer 0.5 M pH 1.2; format: physicochemical
# [2] = buffer pH 1.2, fully dissolved, succinate 0.5 h
# Method: As a result, the pH was adjusted to 1.2 with concentrated hydrochloric acid in both solutions. Both sample preparations were diluted 500 times with the sample diluent (acetonitrile:water 1:1 v/v).
# primary macrophages = conditions: cited from earlier work
# melanocytes = conditions: cited from earlier work
# [3] = Stability of AP1189 in Ora-Sweet and Ora-Sweet SF, HPLC; format: physicochemical; conditions: 20 mg/ml suspension, pH 4.25, T=0
# Method: Stability of AP1189 in Ora-Sweet and Ora-Sweet SF was tested.
# MC3R = conditions: cited from earlier work
# MC1R = conditions: cited from earlier work
# [4] = Chemical stability of AP1189 suspension in Syrspend SF Alka, HPLC; format: physicochemical; conditions: room temp.; for Total Impurities (% Area) Initial / Total Impurities (% Area) T = 30 min / Total Impurities (% Area) T = 60 min / Total Impurities (% Area) T = 90 min: Syrspend SF Alka
# Method: An experiment was conducted at lowest (15 mg) and highest (400 mg) dose strength to assess the dispersability and physical stability of the suspension. Chemical stability of the suspension was assessed by HPLC for 90 minutes at every 30 minutes interval.
# peritonitis = conditions: in vivo; cited from earlier work
# [5] = Forced degradation studies on AP1189 at low pH; format: physicochemical; conditions: within 24 hours
# [6] = tested on: experimental inflammatory arthritis; conditions: in vivo; cited from earlier work
compound,measurement,setting,value
CC1(C)C2CCC1(CS(=O)(=O)O)C(=O)C2 (stereo not shown),Solubility HCI/KCI Buffer 0.5 M pH 1.2,[1],<15 mM
(E)-N-[1-(2-nitrophenyl)-1-H-pyrrole-2-yl-allylideneamino]-guanidinium acetate [AP1189 acetate],Determined concentration in pH 1.2 samples,[2]; acetate 5 h,>223 mg/mL
same,Determined concentration in pH 1.2 samples,[2]; time in cell: acetate 5 h,>617 mM (5 h)
"NC(N)=N/N=C/C=C/c1cccn1-c1ccccc1[N+](=O)[O-] [AP1189, (E)-N-[1-(2-nitrophenyl)-1-H-pyrrole-2-yl-allylideneamino]-guanidine]",cytokine release in macrophages,primary macrophages,reduce cytokine release
same,efferocytosis in primary macrophages,primary macrophages,proefferocytic effect
same,melanogenesis in melanocytes,melanocytes,no melanogenesis was induced
same,"AP1189 degradation in Ora-Sweet SF, Initial",[3],<LOQ
same,ERK1/2 phosphorylation,MC3R,cause ERK1/2 phosphorylation
same,canonical cAMP generation,MC3R,does not induce canonical cAMP generation
same,characterisation at MC3R,MC3R,biased agonist
same,ERK1/2 phosphorylation,MC1R,cause ERK1/2 phosphorylation
same,canonical cAMP generation,MC1R,does not induce canonical cAMP generation
same,characterisation at MC1R,MC1R,biased agonist
same,stability in Syrspend SF Alka (in words),[4]; 90 minutes,stable
same,Total Impurities (% Area) Initial,[4]; dose strength 15 mg,0.89* % Area
same,Total Impurities (% Area) T = 30 min,[4]; dose strength 15 mg,0.94* % Area
same,Total Impurities (% Area) T = 60 min,[4]; dose strength 15 mg,0.88* % Area
same,Total Impurities (% Area) T = 90 min,[4]; dose strength 15 mg,0.87* % Area
same,Total Impurities (% Area) Initial,[4]; dose strength 400 mg,0.45 % Area
same,Total Impurities (% Area) T = 30 min,[4]; dose strength 400 mg,0.45 % Area
same,Total Impurities (% Area) T = 60 min,[4]; dose strength 400 mg,0.45 % Area
same,Total Impurities (% Area) T = 90 min,[4]; dose strength 400 mg,0.45 % Area
same,actions in peritonitis,peritonitis,elicit anti-inflammatory actions
same,degradation at low pH,[5],at least 20%
same,macroscopic and histological parameters of joint disruption,[6],significantly reduce
